According to patent US20230265151A1, “GIP/GLP1 CO-AGONIST COMPOUNDS” (priority 2020, published 2023):
Like-named read-outs stand apart in the source and are kept apart here.

Legend:
hGIPR = target: T1, hGIPR (Homo sapiens, UniProt P48546); assay: Functional cAMP formation (HTRF) in HEK-293 clonal cells expressing hGIPR, 0.1% bovine casein, without or with 1.0% human serum albumin; assay type: cell-based; details: for EC50: cAMP, incubated at 37° C., 0.1% bovine casein (no human serum albumin), geometric mean, read-out: hGIPR EC50, nM (SEM, n)
T1 construct: expressed in transfected cells
T1 sequence (P48546 22-466): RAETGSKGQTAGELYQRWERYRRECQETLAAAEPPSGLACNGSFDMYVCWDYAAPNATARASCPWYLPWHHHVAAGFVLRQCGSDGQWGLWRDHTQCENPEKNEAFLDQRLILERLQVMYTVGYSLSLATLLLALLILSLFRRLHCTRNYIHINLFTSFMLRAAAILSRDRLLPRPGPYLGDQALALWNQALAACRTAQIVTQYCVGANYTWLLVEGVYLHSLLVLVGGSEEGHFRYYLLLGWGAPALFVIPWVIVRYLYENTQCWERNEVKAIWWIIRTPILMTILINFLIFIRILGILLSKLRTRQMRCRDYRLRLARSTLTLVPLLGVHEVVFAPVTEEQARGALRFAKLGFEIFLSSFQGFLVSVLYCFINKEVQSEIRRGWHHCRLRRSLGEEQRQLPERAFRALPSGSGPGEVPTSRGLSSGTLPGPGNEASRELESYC
How it was run: (§1)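 Cells were stimulated with peptide for 30 min at 37° C, then intracellular cAMP was measured by competitive HTRF (665/620 nm ratio) and converted to nM using a cAMP standard curve. Relative EC50 and Emax came from four-parameter logistic fits of percent maximal response against peptide concentration.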

hGCGR = target: T2, hGCGR (Homo sapiens, UniProt P47871); assay: Functional cAMP formation (HTRF) in HEK-293 clonal cells expressing hGCGR, 0.1% bovine casein, without or with 1.0% human serum albumin; assay type: cell-based; details: cAMP
T2 construct: expressed in transfected cells
T2 sequence (P47871 26-477): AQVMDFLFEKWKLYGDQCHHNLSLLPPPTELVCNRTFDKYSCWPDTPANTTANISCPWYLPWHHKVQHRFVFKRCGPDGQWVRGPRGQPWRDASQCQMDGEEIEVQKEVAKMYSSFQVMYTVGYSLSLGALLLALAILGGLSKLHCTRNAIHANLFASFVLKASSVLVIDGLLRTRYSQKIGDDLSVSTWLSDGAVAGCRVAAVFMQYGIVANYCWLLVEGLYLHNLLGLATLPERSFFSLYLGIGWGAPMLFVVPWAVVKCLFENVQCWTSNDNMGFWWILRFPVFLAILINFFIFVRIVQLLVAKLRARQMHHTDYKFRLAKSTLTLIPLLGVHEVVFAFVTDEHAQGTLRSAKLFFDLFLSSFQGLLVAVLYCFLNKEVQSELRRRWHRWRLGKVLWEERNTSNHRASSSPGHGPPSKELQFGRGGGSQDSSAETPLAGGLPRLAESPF
How it was run: as §1

[1] = HEK293, percent of maximal response to GIP(1-42)NH2, 37° C., 0.1% bovine casein, arithmetic mean, read-out: hGIPR Emax, % ± SEM
[2] = incubated at 37° C., 0.1% bovine casein (no human serum albumin), geometric mean, read-out: hGCGR EC50, nM (SEM, n)

| SMILES | Emax (hGIPR; [1]) | EC50 (hGIPR) | EC50 (hGCGR; [2]) | Emax (hGIPR; HEK293, read-out: hGIPR Emax, % ± SEM, cAMP, 37° C., 0.1% bovine casein and 1.0% human serum albumin, percent of maximal response to GIP(1-42)NH2) | EC50 (hGCGR; hGCGR EC50, nM (SEM, n), 37° C., 0.1% bovine casein (no human serum albumin), geometric mean) | EC50 (hGCGR; hGCGR EC50, nM (SEM, n), 37° C., 0.1% bovine casein and 1.0% human serum albumin, geometric mean (SEM, n)) |
| --- | --- | --- | --- | --- | --- | --- |
| CC[C@H](C)[C@H](NC(=O)[C@H](CC(C)C)NC(=O)[C@](C)(Cc1ccc(O)cc1)NC(=O)[C@@H](CCC(=O)O)NC(=O)[C@@H](NC(=O)[C@H](Cc1ccccc1)NC(=O)[C@H](CCC(=O)O)NC(=O)C1(NC(=O)[C@H](CCC(N)=O)NC(=O)[C@H](C)NC(=O)[C@H](CCCCNC(=O)COCCOCCNC(=O)COCCOCCNC(=O)CC[C@H](NC(=O)CCCCCCCCCCCCC(=O)O)C(=O)O)NC(=O)[C@H](CCCN)NC(=O)[C@H](CC(=O)O)NC(=O)[C@H](CC(C)C)NC(=O)[C@](C)(CC(C)C)NC(=O)[C@@H](NC(=O)[C@H](CO)NC(=O)[C@H](Cc2ccncc2)NC(=O)[C@H](CC(=O)O)NC(=O)[C@H](CO)NC(=O)[C@@H](NC(=O)[C@](C)(Cc2ccccc2F)NC(=O)[C@@H](NC(=O)CNC(=O)[C@H](CCC(=O)O)NC(=O)C(C)(C)NC(=O)[C@@H](N)Cc2ccc(O)cc2)[C@@H](C)O)[C@@H](C)O)[C@@H](C)CC)CCCCC1)[C@@H](C)CC)C(=O)N[C@@H](CCC(=O)O)C(=O)NCC(=O)NCC(=O)N[C@@H](CCCCNC(=O)COCCOCCNC(=O)COCCOCCNC(=O)CC[C@H](NC(=O)CCCCCCCCCCCCC(=O)O)C(=O)O)C(=O)N[C@@H](CO)C(=O)N[C@@H](CO)C(=O)NCC(=O)N[C@@H](C)C(=O)N1CCC[C@H]1C(=O)N1CCC[C@H]1C(=O)N1CCC[C@H]1C(=O)N[C@@H](CO)C(N)=O [Example 171] | 95.3% | 0.0389 nM | > 9950 nM |  |  |  |
| CC[C@H](C)[C@H](NC(=O)[C@H](CC(C)C)NC(=O)[C@](C)(Cc1ccc(O)cc1)NC(=O)[C@@H](CCC(=O)O)NC(=O)[C@@H](NC(=O)[C@H](Cc1ccccc1)NC(=O)[C@H](CCC(=O)O)NC(=O)[C@](C)(Cc1ccccc1)NC(=O)[C@H](CCC(N)=O)NC(=O)[C@H](C)NC(=O)[C@H](CCCCNC(=O)COCCOCCNC(=O)COCCOCCNC(=O)CC[C@H](NC(=O)CCCCCCCCCCCCC(=O)O)C(=O)O)NC(=O)[C@H](CCCN)NC(=O)[C@H](CC(=O)O)NC(=O)[C@H](CC(C)C)NC(=O)[C@](C)(CC(C)C)NC(=O)[C@@H](NC(=O)[C@H](CO)NC(=O)[C@H](Cc1ccncc1)NC(=O)[C@H](CC(=O)O)NC(=O)[C@H](CO)NC(=O)[C@@H](NC(=O)[C@](C)(Cc1ccccc1F)NC(=O)[C@@H](NC(=O)CNC(=O)[C@H](CCC(=O)O)NC(=O)C(C)(C)NC(=O)[C@@H](N)Cc1ccc(O)cc1)[C@@H](C)O)[C@@H](C)O)[C@@H](C)CC)[C@@H](C)CC)C(=O)N[C@@H](CCC(=O)O)C(=O)NCC(=O)NCC(=O)N[C@@H](CCCCNC(=O)COCCOCCNC(=O)COCCOCCNC(=O)CC[C@H](NC(=O)CCCCCCCCCCCCC(=O)O)C(=O)O)C(=O)N[C@@H](CO)C(=O)N[C@@H](CO)C(=O)NCC(=O)N[C@@H](C)C(=O)N1CCC[C@H]1C(=O)N1CCC[C@H]1C(=O)N1CCC[C@H]1C(=O)N[C@@H](CO)C(N)=O [Example 169] | 96.1% |  | > 9950 nM |  |  |  |
| CCCC[C@H](NC(=O)[C@H](CC(=O)O)NC(=O)[C@H](CO)NC(=O)[C@@H](NC(=O)[C@](C)(Cc1ccccc1F)NC(=O)[C@@H](NC(=O)CNC(=O)[C@H](CCC(=O)O)NC(=O)C(C)(C)NC(=O)[C@@H](N)Cc1ccc(O)cc1)[C@@H](C)O)[C@@H](C)O)C(=O)N[C@@H](CO)C(=O)N[C@H](C(=O)N[C@@](C)(CC(C)C)C(=O)N[C@@H](CC(C)C)C(=O)N[C@@H](CC(=O)O)C(=O)N[C@@H](CCCN)C(=O)N[C@@H](CCCCNC(=O)COCCOCCNC(=O)COCCOCCNC(=O)CC[C@H](NC(=O)CCCCCCCCCOc1ccc(C(=O)O)cc1)C(=O)O)C(=O)N[C@@H](C)C(=O)N[C@@H](CCC(N)=O)C(=O)NC(C)(C)C(=O)N[C@@H](CCC(=O)O)C(=O)N[C@@H](Cc1ccccc1)C(=O)N[C@H](C(=O)N[C@H](CCC(=O)O)C(=O)N[C@@](C)(Cc1ccc(O)cc1)C(=O)N[C@@H](CC(C)C)C(=O)N[C@H](C(=O)N[C@@H](CCCCNC(=O)COCCOCCNC(=O)COCCOCCNC(=O)CC[C@H](NC(=O)CCCCCCCCCOc1ccc(C(=O)O)cc1)C(=O)O)C(=O)NCC(=O)NCC(=O)N1CCC[C@H]1C(=O)N[C@@H](CO)C(=O)N[C@@H](CO)C(=O)NCC(=O)N[C@@H](C)C(=O)N1CCC[C@H]1C(=O)N1CCC[C@H]1C(=O)N1CCC[C@H]1C(=O)N[C@@H](CO)C(N)=O)[C@@H](C)CC)[C@@H](C)CC)[C@@H](C)CC [Example 328] |  |  |  | 85.5% | > 9950 nM | > 9950 nM |
| CC[C@H](C)[C@H](NC(=O)[C@H](CC(C)C)NC(=O)[C@](C)(Cc1ccc(O)cc1)NC(=O)[C@@H](CCC(=O)O)NC(=O)[C@@H](NC(=O)[C@H](Cc1ccccc1)NC(=O)[C@H](CCC(=O)O)NC(=O)C(C)(C)NC(=O)[C@H](CCC(N)=O)NC(=O)[C@H](C)NC(=O)[C@H](CCC(N)=O)NC(=O)[C@H](CCCN)NC(=O)[C@H](CC(=O)O)NC(=O)[C@H](CC(C)C)NC(=O)[C@](C)(CC(C)C)NC(=O)[C@@H](NC(=O)[C@H](CO)NC(=O)[C@H](Cc1ccncc1)NC(=O)[C@H](CC(=O)O)NC(=O)[C@H](CO)NC(=O)[C@@H](NC(=O)[C@](C)(Cc1ccccc1F)NC(=O)[C@@H](NC(=O)CNC(=O)[C@H](CCC(=O)O)NC(=O)C(C)(C)NC(=O)[C@@H](N)Cc1ccc(O)cc1)[C@@H](C)O)[C@@H](C)O)[C@@H](C)CC)[C@@H](C)CC)C(=O)N[C@@H](CCCCNC(=O)COCCOCCNC(=O)COCCOCCNC(=O)CC[C@H](NC(=O)CCCCCCCCCCCCC(=O)O)C(=O)O)C(=O)NCC(=O)NCC(=O)N[C@@H](CCCCNC(=O)COCCOCCNC(=O)COCCOCCNC(=O)CC[C@H](NC(=O)CCCCCCCCCCCCC(=O)O)C(=O)O)C(=O)N[C@@H](CO)C(=O)N[C@@H](CO)C(=O)NCC(=O)N[C@@H](C)C(=O)N1CCC[C@H]1C(=O)N1CCC[C@H]1C(=O)N1CCC[C@H]1C(=O)N[C@@H](CO)C(N)=O [Example 86] | 94.2 ± 1.16% | 0.0184 nM | > 9950 nM |  |  |  |
| CC[C@H](C)[C@H](NC(=O)[C@H](CC(C)C)NC(=O)[C@](C)(Cc1ccc(O)cc1)NC(=O)[C@@H](CCC(=O)O)NC(=O)[C@@H](NC(=O)[C@H](Cc1ccccc1)NC(=O)[C@H](CCC(=O)O)NC(=O)C(C)(C)NC(=O)[C@H](CCC(N)=O)NC(=O)[C@H](C)NC(=O)[C@H](CCCCNC(=O)COCCOCCNC(=O)COCCOCCNC(=O)CC[C@H](NC(=O)CCCCCCCCCCCCC(=O)O)C(=O)O)NC(=O)[C@H](CCCN)NC(=O)[C@H](CC(=O)O)NC(=O)[C@H](CC(C)C)NC(=O)[C@](C)(CC(C)C)NC(=O)[C@@H](NC(=O)[C@H](CO)NC(=O)[C@H](Cc1ccco1)NC(=O)[C@H](CC(=O)O)NC(=O)[C@H](CO)NC(=O)[C@@H](NC(=O)[C@](C)(Cc1ccccc1F)NC(=O)[C@@H](NC(=O)CNC(=O)[C@H](CCC(=O)O)NC(=O)C(C)(C)NC(=O)[C@@H](N)Cc1ccc(O)cc1)[C@@H](C)O)[C@@H](C)O)[C@@H](C)CC)[C@@H](C)CC)C(=O)N[C@@H](CCC(=O)O)C(=O)NCC(=O)NCC(=O)N[C@@H](CCCCNC(=O)COCCOCCNC(=O)COCCOCCNC(=O)CC[C@H](NC(=O)CCCCCCCCCCCCC(=O)O)C(=O)O)C(=O)N[C@@H](CO)C(=O)N[C@@H](CO)C(=O)NCC(=O)N[C@@H](C)C(=O)N1CCC[C@H]1C(=O)N1CCC[C@H]1C(=O)N1CCC[C@H]1C(=O)N[C@@H](CO)C(N)=O [Example 143] | 95% | 0.022 nM | > 9950 nM |  |  |  |
